Measurements: patent US11414424B2, “Cardiac sarcomere inhibitors” (Cytokinetics, Inc., priority 2018, dated 2022)

Test system: bovine cardiac myofibrils
Assay: Myofibril assay: PK/LDH-coupled steady-state ATPase activity of skinned bovine cardiac myofibrils
Type: biochemical
Conditions: Ca2+ activating to 75% of maximal rate
Method in brief: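 Steady-state ATPase of detergent-skinned bovine left-ventricular myofibrils (1 mg/mL), PK/LDH-coupled NADH read at 340 nm, in PIPES/MgCl2 buffer pH 6.8 with 50 μM ATP, 0.6 mM EGTA and CaCl2 set for 50% or 75% activation. Inhibition of activity measured.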

SMILES	CDMF75 IC15
C=Cc1cnc(N2CC(=O)N(Cc3ccc(Cl)cc3)C(C3COC3)C2=O)c(F)c1 (stereo not drawn) [Compound 723, 4-(4-chlorobenzyl)-1-(3-fluoro-5-vinylpyridin-2-yl)-3-(oxetan-3-yl)piperazine-2,5-dione]	7.1 µM
CNC(=O)N1CC(C2C(=O)N(c3ncc(Cl)cc3F)CC(=O)N2Cc2ccc(Cl)cc2)C1 (stereo not drawn) [Compound 642, 3-(4-(5-chloro-3-fluoro-pyridin-2-yl)-1-(4-chloro-benzyl)-3,6-dioxopiperin-2-yl)-N-methylazetidine-1-carboxamide]	10.9 µM
N#Cc1ccc(N2CC(=O)N(Cc3ccc(C(F)(F)F)cc3)[C@]3(CCN(C(=O)C4COC4)C3)C2=O)c(F)c1 [Compound 215, (S)-3-fluoro-4-(2-(oxetane-3-carbonyl)-7,10-dioxo-6-(4-(trifluoromethyl)benzyl)-2,6,9-triazaspiro[4.5]decan-9-yl)benzonitrile]	1.3 µM
Cc1ccc(CN2C(=O)CN(c3ncc(Cl)cc3F)C(=O)C2C23CC(O)(C2)C3)cc1 (stereo not drawn) [Compound 852, 1-(5-chloro-3-fluoropyridin-2-yl)-3-(3-hydroxybicyclo-[1.1.1]pentan-1-yl)-4-(4-methylbenzyl)piperazine-2,5-dione]	6.5 µM
CC(=O)N1CC2(C1)C(=O)N(C1CCCCCC1)CC(=O)N2Cc1ccc(C(F)(F)F)cc1 [Compound 326, 2-acetyl-8-cycloheptyl-5-(4-(trifluoromethyl)benzyl)-2,5,8-triazaspiro[3.5]-nonane-6,9-dione]	23.7 µM
CC1(C)C(=O)N(c2ncc(Cl)cc2F)CC(=O)N1Cc1ccc(Cl)cc1 [Compound 576, 1-(5-chloro-3-fluoropyridin-2-yl)-4-(4-chlorobenzyl)-3,3-dimethylpiperazine-2,5-dione]	2.2 µM
CC(=O)N1CC2(C1)CC1(C2)C(=O)N(c2ncc(Cl)cc2F)CC(=O)N1Cc1ccc(F)cc1 [Compound 827, 2-acetyl-10-(5-chloro-3-fluoropyridin-2-yl)-7-(4-fluorobenzyl)-2,7,10-triazadispiro[3.1.56.14]-dodecane-8,11-dione]	2.68 µM
CNC(=O)N1CCC2(C1)C(=O)N(c1ccc(C#N)nc1)CC(=O)N2Cc1ccc(C(F)(F)F)cc1 (stereo not drawn) [Compound 184, 9-(6-cyanopyridin-3-yl)-N-methyl-7,10-dioxo-6-(4-(trifluoromethyl)benzyl)-2,6,9-triazaspiro[4.5]-decane-2-carboxamide]	25.5 µM
O=C1[C@H](C2CC2)N(Cc2ccc(F)cc2)C(=O)CN1c1ncc(Cl)cc1F [Compound 751, (S)-1-(5-chloro-3-fluoro-pyridin-2-yl)-3-cyclo-propyl-4-(4-fluorobenzyl)-piperazine-2,5-dione]	1.3 µM
CC1(CO)C(=O)N(c2ncc(Cl)cc2F)CC(=O)N1Cc1ccc(C(F)(F)F)cc1 (stereo not drawn) [Compound 573, 1-(5-chloro-3-fluoropyridin-2-yl)-3-(hydroxymethyl)-3-methyl-4-(4-(trifluoro-methyl)benzyl)piperazine-2,5-dione]	6.5 µM
O=CN1CC2(C1)CC1(C2)C(=O)N(c2ncc(Cl)cc2F)CC(=O)N1Cc1ccc(F)cc1 [Compound 828, 10-(5-chloro-3-fluoro-pyridin-2-yl)-7-(4-fluoro-benzyl)-8,11-dioxo-2,7,10-triazadispiro[3.1.56.14]-dodecane-2-carbaldehyde]	1.37 µM
N#Cc1ccc(N2CC(=O)N(Cc3ccc(C(F)(F)F)cc3)C3(CN(C(N)=O)C3)C2=O)cc1F [Compound 198, 8-(4-cyano-3-fluorophenyl)-6,9-dioxo-5-(4-(trifluoromethyl)benzyl)-2,5,8-triazaspiro[3.5]nonane-2-carboxamide]	0.5 µM
CNC(=O)N1CC2(C1)C(=O)N(c1ccc(C(F)F)cc1)CC(=O)N2Cc1ccc(C(F)(F)F)cc1 [Compound 157, 8-(4-(difluoromethyl)-phenyl)-N-methyl-6,9-dioxo-5(4-(trifluoromethyl)-benzyl)-2,5,8-triazaspiro-[3.5]nonane-2-carboxamide]	5.5 µM
CC(C)N1CC(=O)N(Cc2ccc(Cl)cc2)C(c2ccc(F)cc2)C1=O (stereo not drawn) [Compound 311, 4-(4-chlorobenzyl)-3-(4-fluorophenyl)-1-isopropylpiperazine-2,5-dione]	5.9 µM
Cc1cc(N2CC3(C2)C(=O)N(C(C)C)CC(=O)N3Cc2ccc(Cl)cc2)cc(C)n1 [Compound 49, 5-(4-chlorobenzyl)-2-(2,6-dimethylpyridin-4-yl)-8-isopropyl-2,5,8-triazaspiro[3.5]nonane-6,9-dione]	9.3 µM
CC(C)N1CC(=O)N(Cc2ccc(Cl)c(Cl)c2)C2(CCN(c3ccc(C(N)=O)cn3)C2)C1=O (stereo not drawn) [Compound 91, 6-(6-(3,4-dichlorobenzyl)-9-isopropyl-7,10-dioxo-2,6,9-triazaspiro[4.5]decan-2-yl)nicotinamide]	1.1 µM
CC(=O)N1CC2(C1)C(=O)N(c1ccc(C#N)cc1F)CC(=O)N2Cc1ccc(Cl)cc1 [Compound 175, 4-(2-acetyl-5-(4-chlorobenzyl)-6,9-dioxo-2,5,8-triazaspiro[3.5]nonan-8-yl)-3-fluorobenzonitrile]	1.2 µM
C[C@@H](c1ccc(Cl)cc1)N1C(=O)CN(c2ncc(Cl)cc2F)C(=O)C12CN(C(=O)NC1CCOCC1)C2 [Compound 562, (S)-8-(5-chloro-3-fluoro-pyridin-2-yl)-5-(1-(4-chlorophenyl)ethyl)-6,9-dioxo-N-(tetrahydro-2H-pyran-4-yl)-2,5,8-triazaspiro[3.5]nonane-2-carboxamide]	29.0 µM
N#Cc1ccc(N2CC(=O)N(Cc3ccc(C(F)(F)F)cc3)[C@]3(C[C@H](CO)C3)C2=O)c(F)c1 [Compound 475B]	0.6 µM
CC(=O)N1CC2(C1)C(=O)N(c1ncc(C(F)F)cc1F)CC(=O)N2[C@@H](C)c1ccc(Cl)cc1 [Compound 564, (S)-2-acetyl-5-(1-(4-chlorophenyl)ethyl)-8-(5-(difluoromethyl)-3-fluoropyridin-2-yl)-2,5,8-triazaspiro[3.5]nonane-6,9-dione]	13.0 µM
CNC(=O)N1CC2(C1)C(=O)N(Cc1ccc(C#N)cc1)CC(=O)N2Cc1ccc(C(F)(F)F)cc1 [Compound 336, 8-(4-cyanobenzyl)-N-methyl-6,9-dioxo-5-(4-(trifluoromethyl)benzyl)-2,5,8-triazaspiro[3.5]nonane-2-carboxamide]	1.1 µM
CC(=O)N1CC2(C1)C(=O)N(c1ccc(C#N)c(F)c1)CC(=O)N2Cc1ccc(C(F)(F)F)cc1 [Compound 197, 4-(2-acetyl-6,9-dioxo-5-(4-(trifluoromethyl)benzyl)-2,5,8-triazaspiro[3.5]nonan-8-yl)-2-fluorobenzonitrile]	2.7 µM
CNc1ccccc1C(=O)N1CC2(C1)C(=O)N(c1ccc(C#N)cc1F)CC(=O)N2Cc1ccc(C(F)(F)F)cc1 [Compound 531, 3-fluoro-4-(2-(2-(methylamino)benzoyl)-6,9-dioxo-5-(4-(trifluoromethyl)benzyl)-2,5,8-triazaspiro[3.5]nonan-8-yl)benzonitrile]	5.0 µM
COC(=O)c1cc(N2CC3(C2)C(=O)N(C(C)C)CC(=O)N3Cc2ccc(Cl)cc2)ccn1 [Compound 35, methyl 4-(5-(4-chloro-benzyl)-8-isopropyl-6,9-dioxo-2,5,8-triazaspiro[3.5]nonan-2-yl)picolinate]	14.6 µM
